Results reported in article PMC11864979, “First-in-class ultralong-target-residence-time p38α inhibitors as a mitosis-targeted therapy for colorectal cancer” (Nature Cancer, 2025).
Read-outs that look alike come from different tables or passages of the source.

Tests used:
Experiment in all cases: selectivity profiling in a panel of 340 wild-type kinases (Reaction Biology Europe)
Format in all cases: binding
340 wild-type kinases [1] = molecular target: T1, 340 wild-type kinases (Homo sapiens, UniProt O14757)
T1 construct: purchased Reaction Biology Europe
T1 sequence (O14757 1-476): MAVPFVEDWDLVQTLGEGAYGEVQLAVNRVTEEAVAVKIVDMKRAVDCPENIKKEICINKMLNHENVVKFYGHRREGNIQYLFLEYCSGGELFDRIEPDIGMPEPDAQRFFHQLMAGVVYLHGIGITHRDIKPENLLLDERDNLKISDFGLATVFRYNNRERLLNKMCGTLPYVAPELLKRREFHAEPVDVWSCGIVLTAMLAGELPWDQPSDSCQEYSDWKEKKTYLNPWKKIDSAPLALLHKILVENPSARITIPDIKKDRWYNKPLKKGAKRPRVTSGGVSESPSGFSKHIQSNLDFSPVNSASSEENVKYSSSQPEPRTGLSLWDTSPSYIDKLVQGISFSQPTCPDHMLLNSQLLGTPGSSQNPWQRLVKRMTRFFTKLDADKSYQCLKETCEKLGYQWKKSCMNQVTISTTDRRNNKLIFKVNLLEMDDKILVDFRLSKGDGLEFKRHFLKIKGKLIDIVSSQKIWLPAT

340 wild-type kinases [2] = molecular target: T2, 340 wild-type kinases (Homo sapiens, UniProt P23443)
T2 construct: purchased Reaction Biology Europe
T2 sequence (P23443 whole entry): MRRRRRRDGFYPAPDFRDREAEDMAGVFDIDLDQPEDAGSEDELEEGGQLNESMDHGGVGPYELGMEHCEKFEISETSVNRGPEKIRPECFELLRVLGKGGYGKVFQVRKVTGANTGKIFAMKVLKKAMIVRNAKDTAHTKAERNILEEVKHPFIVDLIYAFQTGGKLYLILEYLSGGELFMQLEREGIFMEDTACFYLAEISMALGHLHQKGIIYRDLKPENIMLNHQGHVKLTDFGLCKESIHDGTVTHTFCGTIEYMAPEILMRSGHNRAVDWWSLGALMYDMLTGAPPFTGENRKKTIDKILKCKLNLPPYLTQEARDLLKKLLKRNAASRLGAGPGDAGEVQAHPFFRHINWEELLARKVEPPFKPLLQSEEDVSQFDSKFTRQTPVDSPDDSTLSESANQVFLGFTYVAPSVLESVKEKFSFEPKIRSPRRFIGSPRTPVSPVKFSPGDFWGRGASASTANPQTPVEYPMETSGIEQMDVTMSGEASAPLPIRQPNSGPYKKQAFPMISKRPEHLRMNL

340 wild-type kinases [3] = molecular target: T3, 340 wild-type kinases (Homo sapiens, UniProt P49336)
T3 construct: purchased Reaction Biology Europe
T3 sequence (P49336 whole entry): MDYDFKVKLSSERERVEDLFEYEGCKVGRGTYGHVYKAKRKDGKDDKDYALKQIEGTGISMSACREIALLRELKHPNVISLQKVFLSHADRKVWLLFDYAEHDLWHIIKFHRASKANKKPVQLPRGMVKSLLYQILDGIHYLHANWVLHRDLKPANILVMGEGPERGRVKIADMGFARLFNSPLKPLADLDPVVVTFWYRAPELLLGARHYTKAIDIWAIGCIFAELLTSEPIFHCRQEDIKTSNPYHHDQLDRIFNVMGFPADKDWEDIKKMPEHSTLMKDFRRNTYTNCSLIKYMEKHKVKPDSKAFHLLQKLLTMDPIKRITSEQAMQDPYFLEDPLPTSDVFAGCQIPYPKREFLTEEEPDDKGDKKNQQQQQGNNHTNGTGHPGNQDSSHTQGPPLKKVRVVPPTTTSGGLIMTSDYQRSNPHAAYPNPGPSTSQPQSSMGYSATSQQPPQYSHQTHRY

340 wild-type kinases [4] = molecular target: T4, 340 wild-type kinases (Homo sapiens, UniProt Q02156)
T4 construct: purchased Reaction Biology Europe
T4 sequence (Q02156 1-737): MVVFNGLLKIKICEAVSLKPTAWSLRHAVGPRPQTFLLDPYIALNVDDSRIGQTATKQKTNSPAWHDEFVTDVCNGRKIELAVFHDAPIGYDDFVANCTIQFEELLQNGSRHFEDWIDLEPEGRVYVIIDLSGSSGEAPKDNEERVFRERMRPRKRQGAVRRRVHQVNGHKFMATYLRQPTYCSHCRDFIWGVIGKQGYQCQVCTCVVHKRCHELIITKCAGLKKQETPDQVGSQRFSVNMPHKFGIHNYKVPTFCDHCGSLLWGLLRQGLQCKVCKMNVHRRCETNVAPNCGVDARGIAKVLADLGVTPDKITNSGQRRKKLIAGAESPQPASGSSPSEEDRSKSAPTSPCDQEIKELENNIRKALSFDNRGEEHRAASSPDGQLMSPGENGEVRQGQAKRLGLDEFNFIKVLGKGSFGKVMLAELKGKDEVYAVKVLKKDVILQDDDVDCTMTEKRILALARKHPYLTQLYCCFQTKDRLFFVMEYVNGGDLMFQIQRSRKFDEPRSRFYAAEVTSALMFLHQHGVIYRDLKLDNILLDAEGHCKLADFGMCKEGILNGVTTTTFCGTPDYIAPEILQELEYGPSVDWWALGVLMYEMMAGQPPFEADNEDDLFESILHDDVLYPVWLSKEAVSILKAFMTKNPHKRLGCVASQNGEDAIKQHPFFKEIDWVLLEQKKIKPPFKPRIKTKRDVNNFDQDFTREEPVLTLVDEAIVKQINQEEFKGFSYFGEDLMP

340 wild-type kinases [5] = molecular target: T5, 340 wild-type kinases (Homo sapiens, UniProt Q13557)
T5 construct: purchased Reaction Biology Europe
T5 sequence (Q13557 whole entry): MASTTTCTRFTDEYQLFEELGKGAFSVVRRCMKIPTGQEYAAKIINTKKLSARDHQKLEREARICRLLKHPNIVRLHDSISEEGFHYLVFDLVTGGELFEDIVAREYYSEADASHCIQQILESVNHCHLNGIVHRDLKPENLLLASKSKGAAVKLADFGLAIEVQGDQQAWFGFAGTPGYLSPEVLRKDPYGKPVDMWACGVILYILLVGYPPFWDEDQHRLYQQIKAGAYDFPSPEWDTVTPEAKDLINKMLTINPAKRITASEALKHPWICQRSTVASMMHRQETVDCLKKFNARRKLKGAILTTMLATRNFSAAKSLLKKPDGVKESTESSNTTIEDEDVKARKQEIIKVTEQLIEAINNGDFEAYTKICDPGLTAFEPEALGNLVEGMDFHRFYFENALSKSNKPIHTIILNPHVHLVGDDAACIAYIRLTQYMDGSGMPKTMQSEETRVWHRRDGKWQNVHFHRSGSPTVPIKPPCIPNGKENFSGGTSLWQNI

340 wild-type kinases [6] = molecular target: T6, 340 wild-type kinases (Homo sapiens, UniProt Q9H093)
T6 construct: purchased Reaction Biology Europe
T6 sequence (Q9H093 1-628): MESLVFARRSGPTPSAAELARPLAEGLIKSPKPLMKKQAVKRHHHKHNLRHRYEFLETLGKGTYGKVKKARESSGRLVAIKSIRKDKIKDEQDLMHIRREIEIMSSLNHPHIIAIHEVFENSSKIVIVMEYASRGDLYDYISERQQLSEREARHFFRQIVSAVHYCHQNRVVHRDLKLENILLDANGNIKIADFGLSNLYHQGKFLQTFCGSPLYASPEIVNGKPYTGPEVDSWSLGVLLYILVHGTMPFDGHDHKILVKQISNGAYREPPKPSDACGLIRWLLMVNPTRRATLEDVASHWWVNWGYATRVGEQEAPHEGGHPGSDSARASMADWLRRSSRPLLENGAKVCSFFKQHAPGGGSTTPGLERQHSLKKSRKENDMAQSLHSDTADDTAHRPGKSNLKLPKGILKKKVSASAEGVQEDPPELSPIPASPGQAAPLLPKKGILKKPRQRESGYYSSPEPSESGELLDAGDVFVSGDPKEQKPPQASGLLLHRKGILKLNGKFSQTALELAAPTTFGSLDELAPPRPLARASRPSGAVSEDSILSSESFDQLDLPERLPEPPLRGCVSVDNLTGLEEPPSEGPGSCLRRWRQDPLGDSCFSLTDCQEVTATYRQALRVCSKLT

340 wild-type kinases [7] = molecular target: T7, 340 wild-type kinases (Homo sapiens, UniProt Q9NYV4)
T7 construct: purchased Reaction Biology Europe
T7 sequence (Q9NYV4 whole entry): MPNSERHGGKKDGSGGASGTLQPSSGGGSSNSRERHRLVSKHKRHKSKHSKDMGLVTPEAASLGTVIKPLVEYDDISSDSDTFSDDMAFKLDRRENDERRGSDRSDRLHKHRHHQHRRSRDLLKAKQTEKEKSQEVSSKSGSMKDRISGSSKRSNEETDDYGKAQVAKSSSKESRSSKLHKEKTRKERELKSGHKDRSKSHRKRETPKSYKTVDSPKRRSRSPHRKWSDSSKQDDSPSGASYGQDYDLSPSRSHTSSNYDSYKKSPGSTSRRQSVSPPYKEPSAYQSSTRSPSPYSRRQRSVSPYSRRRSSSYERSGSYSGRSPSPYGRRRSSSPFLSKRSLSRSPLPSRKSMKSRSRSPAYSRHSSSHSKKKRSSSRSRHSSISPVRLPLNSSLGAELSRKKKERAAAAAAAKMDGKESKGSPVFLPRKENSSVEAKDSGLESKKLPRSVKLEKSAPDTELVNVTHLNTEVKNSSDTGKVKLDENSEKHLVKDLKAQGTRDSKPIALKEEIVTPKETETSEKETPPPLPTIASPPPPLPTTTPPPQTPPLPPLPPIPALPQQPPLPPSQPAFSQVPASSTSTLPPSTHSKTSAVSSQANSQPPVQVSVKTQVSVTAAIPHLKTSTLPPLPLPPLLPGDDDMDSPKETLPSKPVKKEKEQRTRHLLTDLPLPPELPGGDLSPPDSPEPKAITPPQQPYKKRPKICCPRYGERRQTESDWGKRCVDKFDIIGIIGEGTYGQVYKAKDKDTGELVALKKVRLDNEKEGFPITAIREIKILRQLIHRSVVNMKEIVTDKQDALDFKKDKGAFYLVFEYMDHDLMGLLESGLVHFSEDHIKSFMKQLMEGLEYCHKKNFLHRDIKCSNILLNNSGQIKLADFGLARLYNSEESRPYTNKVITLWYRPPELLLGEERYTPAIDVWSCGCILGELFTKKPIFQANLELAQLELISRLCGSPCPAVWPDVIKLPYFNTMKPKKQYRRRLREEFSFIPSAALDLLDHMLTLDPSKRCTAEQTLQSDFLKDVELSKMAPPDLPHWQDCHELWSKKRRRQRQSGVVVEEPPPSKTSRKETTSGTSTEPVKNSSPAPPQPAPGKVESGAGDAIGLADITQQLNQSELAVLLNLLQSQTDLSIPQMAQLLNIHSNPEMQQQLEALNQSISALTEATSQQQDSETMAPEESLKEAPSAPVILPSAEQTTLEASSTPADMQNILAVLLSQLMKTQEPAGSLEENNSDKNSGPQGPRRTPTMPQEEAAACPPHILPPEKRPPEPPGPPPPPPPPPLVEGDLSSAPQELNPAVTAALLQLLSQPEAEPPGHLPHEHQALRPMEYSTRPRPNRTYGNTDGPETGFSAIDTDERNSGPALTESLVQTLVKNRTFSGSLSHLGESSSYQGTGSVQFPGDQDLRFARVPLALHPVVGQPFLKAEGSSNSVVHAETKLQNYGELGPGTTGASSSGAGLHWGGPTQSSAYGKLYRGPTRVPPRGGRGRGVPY

340 wild-type kinases [8] = molecular target: T8, 340 wild-type kinases (Homo sapiens, UniProt Q9UK32)
T8 construct: purchased Reaction Biology Europe
T8 sequence (Q9UK32 whole entry): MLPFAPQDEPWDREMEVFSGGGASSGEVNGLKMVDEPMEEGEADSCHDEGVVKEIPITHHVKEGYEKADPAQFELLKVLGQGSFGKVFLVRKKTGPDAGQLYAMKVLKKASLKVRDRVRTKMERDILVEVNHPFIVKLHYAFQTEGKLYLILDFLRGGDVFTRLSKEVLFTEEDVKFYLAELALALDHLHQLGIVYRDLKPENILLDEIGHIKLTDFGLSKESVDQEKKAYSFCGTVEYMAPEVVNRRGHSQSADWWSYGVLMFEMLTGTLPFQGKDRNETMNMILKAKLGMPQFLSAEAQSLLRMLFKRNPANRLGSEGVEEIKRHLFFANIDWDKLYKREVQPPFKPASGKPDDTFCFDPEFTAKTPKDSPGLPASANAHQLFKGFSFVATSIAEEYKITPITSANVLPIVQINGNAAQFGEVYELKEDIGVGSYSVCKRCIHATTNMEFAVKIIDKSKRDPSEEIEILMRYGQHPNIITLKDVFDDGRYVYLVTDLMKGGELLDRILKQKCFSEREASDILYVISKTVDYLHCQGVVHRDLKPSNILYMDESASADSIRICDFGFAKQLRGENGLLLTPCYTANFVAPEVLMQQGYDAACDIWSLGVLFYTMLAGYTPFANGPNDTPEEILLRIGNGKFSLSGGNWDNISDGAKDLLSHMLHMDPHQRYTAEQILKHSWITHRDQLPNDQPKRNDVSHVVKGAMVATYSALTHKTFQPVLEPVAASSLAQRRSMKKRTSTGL

340 wild-type kinases [9] = molecular target: T9, 340 wild-type kinases (Homo sapiens, UniProt Q9Y2H1)
T9 construct: purchased Reaction Biology Europe
T9 sequence (Q9Y2H1 whole entry): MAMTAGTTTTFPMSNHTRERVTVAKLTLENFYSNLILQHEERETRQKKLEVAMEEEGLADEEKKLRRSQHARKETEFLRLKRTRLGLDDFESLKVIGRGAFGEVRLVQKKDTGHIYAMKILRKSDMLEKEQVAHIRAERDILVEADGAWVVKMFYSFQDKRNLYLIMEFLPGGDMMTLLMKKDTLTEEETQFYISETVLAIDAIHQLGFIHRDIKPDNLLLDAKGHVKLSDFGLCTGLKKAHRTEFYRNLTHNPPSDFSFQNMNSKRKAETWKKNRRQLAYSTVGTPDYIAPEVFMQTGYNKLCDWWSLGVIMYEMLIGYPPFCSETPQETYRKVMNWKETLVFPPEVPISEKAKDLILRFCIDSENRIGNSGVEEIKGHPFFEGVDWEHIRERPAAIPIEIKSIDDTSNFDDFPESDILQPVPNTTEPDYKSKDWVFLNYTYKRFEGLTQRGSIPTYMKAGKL

CNC(=O)c1ccc2c(c1)C(=O)c1ccc(Nc3ccc(F)c(NC(=O)C4CC4)c3)cc1CC2 [Compound 2015]
remaining activity at 0.2 µM (340 wild-type kinases [1]; 0.2 µM 2015, read-out: CHK1 residual activity): 88.2% | remaining activity at 1 µM (340 wild-type kinases [1]; 1 µM 2015, read-out: CHK1 residual activity): 87.9% | remaining activity at 0.2 µM (340 wild-type kinases [1]; CHK1, 0.2 µM, read-out: residual activity): 88.2% | remaining activity at 1 µM (340 wild-type kinases [1]; CHK1, 1 µM, read-out: residual activity): 87.8% | remaining activity at 0.2 µM (340 wild-type kinases [2]; 0.2 µM 2015, read-out: S6K residual activity): 94.9% | remaining activity at 1 µM (340 wild-type kinases [2]; 1 µM 2015, read-out: S6K residual activity): 95.1% | remaining activity at 0.2 µM (340 wild-type kinases [2]; S6K, 0.2 µM, read-out: residual activity): 94.9% | remaining activity at 1 µM (340 wild-type kinases [2]; S6K, 1 µM, read-out: residual activity): 95.1% | remaining activity at 0.2 µM (340 wild-type kinases [3]; 0.2 µM 2015, read-out: CDK8/CycC residual activity): 92.5% | remaining activity at 1 µM (340 wild-type kinases [3]; 1 µM 2015, read-out: CDK8/CycC residual activity): 85.2% | remaining activity at 0.2 µM (340 wild-type kinases [3]; CDK8/CycC, 0.2 µM, read-out: residual activity): 92.5% | remaining activity at 1 µM (340 wild-type kinases [3]; CDK8/CycC, 1 µM, read-out: residual activity): 85.2% | remaining activity at 0.2 µM (340 wild-type kinases [4]; 0.2 µM 2015, read-out: PKCepsilon residual activity): 83.1% | remaining activity at 1 µM (340 wild-type kinases [4]; 1 µM 2015, read-out: PKCepsilon residual activity): 90.5% | remaining activity at 0.2 µM (340 wild-type kinases [4]; PKCepsilon, 0.2 µM, read-out: residual activity): 83.1% | remaining activity at 1 µM (340 wild-type kinases [4]; PKCepsilon, 1 µM, read-out: residual activity): 90.5% | remaining activity at 0.2 µM (340 wild-type kinases [5]; 0.2 µM 2015, read-out: CAMK2D residual activity): 98.1% | remaining activity at 1 µM (340 wild-type kinases [5]; 1 µM 2015, read-out: CAMK2D residual activity): 95.7% | remaining activity at 0.2 µM (340 wild-type kinases [5]; CAMK2D, 0.2 µM, read-out: residual activity): 98.1% | remaining activity at 1 µM (340 wild-type kinases [5]; CAMK2D, 1 µM, read-out: residual activity): 95.7% | remaining activity at 0.2 µM (340 wild-type kinases [6]; 0.2 µM 2015, read-out: SNARK residual activity): 97% | remaining activity at 1 µM (340 wild-type kinases [6]; 1 µM 2015, read-out: SNARK residual activity): 92.5% | remaining activity at 0.2 µM (340 wild-type kinases [6]; SNARK, 0.2 µM, read-out: residual activity): 97% | remaining activity at 1 µM (340 wild-type kinases [6]; SNARK, 1 µM, read-out: residual activity): 92.5% | remaining activity at 0.2 µM (340 wild-type kinases [7]; 0.2 µM 2015, read-out: CDK12/CycK residual activity): 112% | remaining activity at 1 µM (340 wild-type kinases [7]; 1 µM 2015, read-out: CDK12/CycK residual activity): 103% | remaining activity at 0.2 µM (340 wild-type kinases [7]; CDK12/CycK, 0.2 µM, read-out: residual activity): 112% | remaining activity at 1 µM (340 wild-type kinases [7]; CDK12/CycK, 1 µM, read-out: residual activity): 103% | remaining activity at 0.2 µM (340 wild-type kinases [8]; 0.2 µM 2015, read-out: RPS6KA6 residual activity): 89.7% | remaining activity at 1 µM (340 wild-type kinases [8]; 1 µM 2015, read-out: RPS6KA6 residual activity): 81.3% | remaining activity at 0.2 µM (340 wild-type kinases [8]; RPS6KA6, 0.2 µM, read-out: residual activity): 89.7% | remaining activity at 1 µM (340 wild-type kinases [8]; RPS6KA6, 1 µM, read-out: residual activity): 81.3% | remaining activity at 0.2 µM (340 wild-type kinases [9]; 0.2 µM 2015, read-out: NDR2 residual activity): 97.8% | remaining activity at 1 µM (340 wild-type kinases [9]; 1 µM 2015, read-out: NDR2 residual activity): 96.6% | remaining activity at 0.2 µM (340 wild-type kinases [9]; NDR2, 0.2 µM, read-out: residual activity): 97.8% | remaining activity at 1 µM (340 wild-type kinases [9]; NDR2, 1 µM, read-out: residual activity): 96.7%
